PMC12211128, “Safety, tolerability, pharmacokinetic and pharmacodynamic effects of the muscarinic M1 positive allosteric modulator VU0467319 for Alzheimer’s disease: a single ascending-dose study in healthy participants” (Alzheimer's Research & Therapy, 2025)
Entries after “also recorded” stand apart in the source; their conditions may differ.

What was measured:
healthy participants [1] = assay: Spatial selective attention test (SSAT); assay type: in vivo, human; conditions: for SSAT Alerting Cost / SSAT Reorienting Cost: mean (SD)
From the text: A version of the spatial selective attention test (SSAT; [33]) was used to assess the ability of participants to disengage attention and shift to a new target. Participants were asked to press a button corresponding to the side of the screen on which a stimulus appeared. The outcome variables of the task are the reaction time effects related to the ability of participants to anticipate a target when there is an ambiguous cue compared to there being no cue at all (Alerting effect: no cue– neutral cue); and the ability of participants to shift their attention between congruent and incongruent stimuli (Reorienting effect: invalid cue– valid cue).
Cognitive data: In this exploratory analysis, each outcome variable of the cognitive data was examined in a mixed model analysis of variance with one between-subjects factor of VU319 dose (0, 60, 120, 240, 400, 600 mg) and a within-subjects factor of testing session (pre-dose vs. post-dost administration). Post-hoc analysis compared each of the VU319 dose cohorts against the placebo group. Because the participants were healthy adults with normal cognitive function, we considered effects between no reductions in function to small improvement (d = 0.0–0.20) to be a positive result. For the food effect study, only the participants who received VU319 were examined due to the disproportionately small placebo group (n = 2). A within-subjects ANOVA including food condition (fasted/fed) and testing session (pre-dose vs. post-dose administration) was performed on each outcome variable.
A version of the spatial selective attention test (SSAT; (Posner, 1980)) was used to assess the ability of participants to disengage attention and shift to a new target. Participants were asked to press a button corresponding to the side of the screen on which a stimulus appeared. A central diamond was placed in between serving as a fixation point. Cues consisted of a 200-ms darkening of one side of the diamond depicting an arrowhead pointing to one of the peripheral boxes. The cue was followed by a target appearing for 100-ms in one of the boxes. To prevent temporal orienting, we used two randomly occurring cue–target intervals (400 and 700-ms). The targets were black diamonds that appeared in either the left or right boxes. In most trials, the cue validly predicted the target, however some cues were invalid, that is they pointed in the opposite direction of the target. On some trials, both sides of the diamond darkened, resulting in an ambiguous or neutral cue in which the participants were not able to prepare a specific hand to respond. […] The task consisted of 112 trials, with 64 trials (57%) with valid cues, and 16 trials (14.3%) each for the invalid, neutral or no cues conditions. The outcome variables of the task are the reaction time effects related to the ability of participants to anticipate a target when there is an ambiguous cue compared to there being no cue at all (Alerting effect: no cue – neutral cue); and the ability of participants to shift their attention between congruent and incongruent stimuli (Reorienting effect: invalid cue – valid cue).

healthy participants [2] = assay: Treatment emergent adverse event (TEAE) monitoring; assay type: in vivo, human
Description: Safety and tolerability were assessed throughout the study via treatment emergent adverse event (TEAE) monitoring, vital signs (blood pressure, pulse rate, respiration rate, oral temperature), physical examinations, 12-lead ECGs, and clinical laboratory parameters including complete blood count (CBC), coagulation, hematology, clinical chemistry assessments, and urinalysis. Safety laboratory tests were drawn at pre-dose and at 5, 24, 36 and 144-hours post-dose for 60–400 mg Cohorts; and at 24, 48, 72 and 144-hours post-dose for the 600 mg and Food Effect Cohort. ECG assessments were conducted at pre-dose and at 1, 2, 3, 5, 9, 24, 36 and 144-hours post-dose for 60–400 mg Cohorts; and at 2, 3, 5, 9, 24, 36, 72 and 144-hours post-dose for the 600 mg and Food Effect Cohort. All adverse events (AEs) were assessed by the investigator for severity and relationship to study medication or study procedures.
All AEs were coded using the Medical Dictionary for Regulatory Activities (MedDRA) version 22.0. All AEs were listed, and the emergence of TEAEs were categorized by body system affected and analyzed to determine whether they were related to treatment. Analysis of TEAEs for VU319 vs. Placebo were completed using Fisher’s Exact Test. Assessment of the grade of toxicity or relation to the study drug for each adverse event was determined by the Investigator. Changes in vital signs, physical examination, and laboratory tests were collected. Changes in vital signs from pre-dose to 48 h post-dose were placed into 10-time bins and assessed using mixed-measures ANOVA with the time bins as the within-subjects factor and dose as the between-subjects factor. To assess changes is QT analyses with respect to VU319 concentration, we calculated the maximal change in QTcF from baseline for each participant. We assessed the relationship between these maximal changes from baseline with the participant’s Cmax using Pearson correlations. Outlier QTcF values (> 450 ms) were also assessed against PK concentrations to examine it there was any relationship using Pearson correlations. Analyses of safety data was completed by SAS version 9.4.

[3] = Food effect study 120 mg, Fasting, Post-Drug
[4] = Food effect study 120 mg, Fasting, Pre-Drug
[5] = Food effect study 120 mg, Fed, Post-Drug
[6] = Food effect study 120 mg, Fed, Pre-Drug

Cn1cc2c(-c3cc(F)c(CN4Cc5ncccc5C4=O)c(F)c3)cccc2n1 [VU319]
SSAT Alerting Cost (healthy participants [1]; [3]): 25.8 (59.97) ms | SSAT Reorienting Cost (healthy participants [1]; [3]): 49.55 (35.68) ms | SSAT Alerting Cost (healthy participants [1]; [4]): 60.4 (53.4) ms | SSAT Reorienting Cost (healthy participants [1]; [4]): 52.15 (24.83) ms | SSAT Alerting Cost (healthy participants [1]; [5]): 113.15 (181.48) ms | SSAT Reorienting Cost (healthy participants [1]; [5]): 49.45 (32.65) ms | SSAT Alerting Cost (healthy participants [1]; [6]): 54.1 (45.3) ms | SSAT Reorienting Cost (healthy participants [1]; [6]): 56.75 (38.19) ms | SSAT Alerting Cost (healthy participants [1]; SAD study, 60 mg, Post-Drug): 59.58 (43) ms | SSAT Reorienting Cost (healthy participants [1]; SAD study, 60 mg, Post-Drug): 55.25 (34.49) ms | SSAT Alerting Cost (healthy participants [1]; SAD study, 60 mg, Pre-Drug): 53.67 (39.48) ms | SSAT Reorienting Cost (healthy participants [1]; SAD study, 60 mg, Pre-Drug): 43.58 (31.92) ms | SSAT Alerting Cost (healthy participants [1]; SAD study, 120 mg, Post-Drug): 44.25 (22.86) ms | SSAT Reorienting Cost (healthy participants [1]; SAD study, 120 mg, Post-Drug): 20.33 (32.95) ms | SSAT Alerting Cost (healthy participants [1]; SAD study, 120 mg, Pre-Drug): 62.75 (45) ms | SSAT Reorienting Cost (healthy participants [1]; SAD study, 120 mg, Pre-Drug): 10.17 (18.88) ms | SSAT Alerting Cost (healthy participants [1]; SAD study, 240 mg, Post-Drug): 58.83 (38.04) ms | SSAT Reorienting Cost (healthy participants [1]; SAD study, 240 mg, Post-Drug): 39.67 (33.04) ms | SSAT Alerting Cost (healthy participants [1]; SAD study, 240 mg, Pre-Drug): 34.83 (27.3) ms | SSAT Reorienting Cost (healthy participants [1]; SAD study, 240 mg, Pre-Drug): 27.92 (29.28) ms | SSAT Alerting Cost (healthy participants [1]; SAD study, 400 mg, Post-Drug): 44.92 (26.61) ms | SSAT Reorienting Cost (healthy participants [1]; SAD study, 400 mg, Post-Drug): 31.25 (18.61) ms | SSAT Alerting Cost (healthy participants [1]; SAD study, 400 mg, Pre-Drug): 59.75 (24.51) ms | SSAT Reorienting Cost (healthy participants [1]; SAD study, 400 mg, Pre-Drug): 22.17 (25) ms | SSAT Alerting Cost (healthy participants [1]; SAD study, 600 mg, Post-Drug): 19.5 (41.26) ms | SSAT Reorienting Cost (healthy participants [1]; SAD study, 600 mg, Post-Drug): 31.33 (15.75) ms | SSAT Alerting Cost (healthy participants [1]; SAD study, 600 mg, Pre-Drug): 26.08 (37.44) ms | SSAT Reorienting Cost (healthy participants [1]; SAD study, 600 mg, Pre-Drug): 20.92 (11.57) ms | SSAT reorienting effect, effect of dose (healthy participants [1]; SAD study, both p > 0.3): no effect of dose, nor a dose by time interaction | SSAT, effect of food condition or time (healthy participants [1]; food effect study, 120 mg): no effect of either food condition or time | TEAEs, VU319 vs placebo (Fisher's Exact Tests) (healthy participants [2]; in vivo): did not show a significant difference | number of TEAEs across the 5 active dose cohorts (healthy participants [2]; in vivo): 33 | serious TEAEs, deaths, discontinuations (healthy participants [2]; single oral doses 60-600 mg): No TEAE was rated as serious; also recorded: no serious TEAEs or discontinuations occurred; also recorded: no deaths, serious TEAEs, or TEAEs leading to discontinuation | tolerability (healthy participants [2]; single oral doses 60 to 600 mg, healthy volunteers aged 18-55): Tolerability was good; also recorded: generally well tolerated | maximum tolerated dose (MTD) (healthy participants [2]; single oral doses up to 600 mg): not achieved
